Data on four substances can be found in patent publication US20250340604A1, “BLOOD-BRAIN BARRIER TRANSLOCATING PEPTIDES AND RELATED MOLECULES AND METHODS OF USE THEREOF” (Enkefalos Biosciences, Inc., priority 2022, published 2025).

Read-outs that look alike come from different tables or passages of the source. Ends that are not written are not given here.

The conditions of data set [1]: mouse, even after repeat dose; cited from earlier work.
The conditions of data set [2]: rat, even after repeat dose; cited from earlier work.
The target in data set [3] is T1, human transferrin receptor (hTfR) (Homo sapiens, UniProt P02786).
T1 construct: expressed in transfected cells; host or cells: HEK293F
Description: Flow cytometry internalization assay, hTfR-expressing HEK293F cells. In kind it is cell-based. The conditions noted are these: 50 nM Alexafluor 488 labeled protein, 4 h at 37° C., HEK293F cells transfected with hTfR; FIG. 2. On the procedure: (§1) Free dye was then removed by passage through one to two desalting columns. HEK293F cells were first serially passaged two to three times, then transfected with expression constructs encoding human or mouse transferrin receptor ([…], respectively), and grown for 2-3 days at 37° C., 8% CO2, 130 rpm shaking in preparation for the assay. […] Cells were then pelleted, supernatant discarded, and resuspended in 40 μL fresh media containing 250 nM anti-488 quenching antibody (or media lacking 488 quenching antibody as a control), incubated on ice for 5 min, pelleted, supernatant discarded, washed with 200 μL cold FACS buffer, pelleted, supernatant discarded, and resuspended in 200 μL cold FACS buffer. Each sample was then subjected to FACS analysis using the FITC fluorescence detection channel, using Gate 1 (forward scatter linear vs. side scatter linear) to select live cells with normal morphology, using Gate 2 (side scatter area vs. side scatter linear) to select single cells, and measuring logarithmic FITC signal for 20,000-50,000 cells per sample. Subsequent data analysis was carried out using the FlowJo software package.

The target in data set [4] is T2, mouse transferrin receptor (mTfR) (Mus musculus, UniProt Q62351).
T2 construct: expressed in transfected cells; host or cells: HEK293F
Description: Flow cytometry internalization assay, mTfR-expressing HEK293F cells. In kind it is cell-based. Particulars: 50 nM Alexafluor 488 labeled protein, 4 h at 37° C., HEK293F cells transfected with mTfR; FIG. 2. On the procedure:
as §1
Background: A flow cytometer gives signals particle by particle.

The conditions of data set [5]: monovalent trastuzumab knob-hole cyclotide fusions, 25 mg/kg, 24 hours, brain homogenate ELISA, versus trastuzumab alone; FIG. 8B. In general terms: ELISA stands for enzyme-linked immunosorbent assay.
Description: Female C57BL/6 mice, age 10-12 weeks, were weighed and administered purified trastuzumab antibody or trastuzumab antibody-monovalent cyclotide fusions, made monovalent by knobs-holes fusion (targeting IGF1R, LRP1, or RAGE receptors) in triplicate at 25 mg/kg in phosphate buffered saline (PBS). After 24 hours, mice were perfused with Dulbecco's PBS containing anesthetic via aortic puncture and brains were removed. One brain hemisphere was transferred to 4% paraformaldehyde in PBS for 24 hours at 4° C., then transferred to PBS at 4° C., paraffin embedded, thin-sectioned using a microtome, and slices were mounted on slides for immunohistochemistry (IHC). The other brain hemisphere was flash frozen and stored at −80° C. prior to homogenization. […]
Antibodies present in brain were quantified by enzyme-linked immunosorbent assay (ELISA). […] Plates were washed 4 times with TBST and once with TBS, developed with 3,3′,5,5′-tetramethylbenzidine (TMB) for 2 minutes, quenched with 1 N sulfuric acid, and read at 450 nm in a SpectraMax plate reader. […] Amounts of antibodies (e.g., antibody fusion proteins or antibody alone) present in brain homogenates were determined by interpolation from each standard curve and were expressed as percents of injected dose per gram of brain (FIG. 8B).

T1 sequence (P02786 whole entry): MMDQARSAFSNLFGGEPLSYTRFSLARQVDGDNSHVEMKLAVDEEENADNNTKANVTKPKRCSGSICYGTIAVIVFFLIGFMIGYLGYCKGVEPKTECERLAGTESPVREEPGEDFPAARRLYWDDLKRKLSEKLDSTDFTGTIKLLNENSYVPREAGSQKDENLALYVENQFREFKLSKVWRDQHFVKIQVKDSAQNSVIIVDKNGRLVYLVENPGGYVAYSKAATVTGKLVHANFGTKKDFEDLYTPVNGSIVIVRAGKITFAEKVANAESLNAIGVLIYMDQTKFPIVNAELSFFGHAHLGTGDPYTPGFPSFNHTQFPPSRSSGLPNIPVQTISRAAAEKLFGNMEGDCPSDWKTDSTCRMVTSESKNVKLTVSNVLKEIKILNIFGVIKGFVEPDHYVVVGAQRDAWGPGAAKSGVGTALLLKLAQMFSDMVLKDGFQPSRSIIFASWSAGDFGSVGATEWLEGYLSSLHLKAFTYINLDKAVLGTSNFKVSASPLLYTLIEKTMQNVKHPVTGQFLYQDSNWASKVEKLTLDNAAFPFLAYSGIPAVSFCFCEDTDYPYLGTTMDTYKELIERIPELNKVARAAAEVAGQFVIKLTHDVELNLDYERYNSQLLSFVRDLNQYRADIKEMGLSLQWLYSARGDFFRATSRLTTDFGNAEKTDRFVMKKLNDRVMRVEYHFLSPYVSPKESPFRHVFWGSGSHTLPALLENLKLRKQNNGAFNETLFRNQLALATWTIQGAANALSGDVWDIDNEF
T2 sequence (Q62351 whole entry): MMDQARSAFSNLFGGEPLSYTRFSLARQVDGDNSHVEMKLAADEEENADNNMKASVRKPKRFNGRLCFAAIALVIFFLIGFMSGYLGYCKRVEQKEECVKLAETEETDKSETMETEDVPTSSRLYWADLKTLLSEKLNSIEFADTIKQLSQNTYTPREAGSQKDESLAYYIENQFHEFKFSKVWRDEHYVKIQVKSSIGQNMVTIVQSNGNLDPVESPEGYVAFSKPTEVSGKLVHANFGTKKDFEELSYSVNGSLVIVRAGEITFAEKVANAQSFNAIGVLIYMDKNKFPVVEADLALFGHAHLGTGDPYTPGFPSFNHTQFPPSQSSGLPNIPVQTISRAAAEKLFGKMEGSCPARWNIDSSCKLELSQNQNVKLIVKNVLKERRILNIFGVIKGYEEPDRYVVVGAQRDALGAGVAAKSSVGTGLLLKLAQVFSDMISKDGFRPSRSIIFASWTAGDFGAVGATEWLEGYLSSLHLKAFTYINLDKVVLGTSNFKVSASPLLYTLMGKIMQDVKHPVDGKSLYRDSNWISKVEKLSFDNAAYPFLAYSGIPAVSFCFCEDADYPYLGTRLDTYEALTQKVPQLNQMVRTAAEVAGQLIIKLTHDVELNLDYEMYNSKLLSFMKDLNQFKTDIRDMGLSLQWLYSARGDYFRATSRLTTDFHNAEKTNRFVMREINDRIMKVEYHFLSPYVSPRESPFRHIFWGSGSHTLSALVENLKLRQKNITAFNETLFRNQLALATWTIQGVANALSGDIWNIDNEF

Take Ziconitide: the “anti-drug antibodies (ADAs)” value in data set [1] and in data set [2] was “no anti-drug antibodies (ADAs) were detectable” throughout.
Consider adalimumab, for which the “internalization (mean FITC fluorescence intensity)” value in data set [3] and in data set [4] was “not” throughout.
For the substance “cyclotide binding Hu LRP-1; loop 1 peptide WLTLGIANKGIDVYDVK (SEQ ID NO:39); cyclotide SEQ ID NO:85 (GGVCWLTLGIANKGIDVYDVKCRRDSDCPGACICRGNGYCGSGSD; not fully specified (bridges); cysteine pairing not given here) [CYC30]”, the “trastuzumab delivery to the brain (percents of injected dose per gram of brain)” value in data set [5] is reported as “did not exhibit enhancement”.
On the same count and under the same terms, in the case of “cyclotide binding Hu LRP-1; loop 1 peptide WYETKTKLYVGVVK (SEQ ID NO:43); cyclotide SEQ ID NO:89 (GGVCWYETKTKLYVGVVKCRRDSDCPGACICRGNGYCGSGSD; not fully specified (bridges); cysteine pairing not given here) [CYC34]” it was “greatest enhancement”.
